Data as given in patent US8648116B2, “Derivatives of N-(arylamino) sulfonamides including polymorphs as inhibitors of MEK as well as compositions, methods of use and methods for preparing the same” (Ardea Biosciences, Inc., priority 2005, dated 2014).
Where “and” joins values, the source holds several entries; their conditions need not be identical. Identical values can stand only once.

system: orthotopic Hep3B2.1-7 human hepatic carcinoma; assay: Growth response of orthotopic Hep3B tumors in nude mice; assay type: in vivo, BALB/c nu/nu mice; conditions: 5FU 75 mg/kg i.v. Day 0, 7 and 14
Procedure: (§1) Female BALB/c nu/nu mice (University of Adelaide, Waite Campus, SA, Australia), aged 10-14 weeks, with a body weight range: of 19.1-29.94 g (mean 22.95 g) were used for the study. The mice were divided into 6 Study groups (4 treatment groups and 2 control groups) as follows: • Number of Mice per Group: 10 in Groups 1 to 5 inclusive • 15 in ‘Take-Rate’ Control Group (Group 6)
Hep3B human hepatic carcinoma cells (Passage 2 from working stock VP-Stock 353) were cultured in RPMI1640 cell culture medium, which was supplemented with 10% FBS and penicillin-streptomycin (501 U/mL final concentration). The cells were harvested by trypsinisation, washed twice in HBSS and counted. The cells were then resuspended in HBSS:Matrigel (1:1, v/v) and adjusted to a final volume containing 1×10^8 cells/mL. Prior to inoculation, the incision site was liberally swabbed with alcohol and an incision made through the abdominal wall to expose the liver. The needle was introduced through the surface of the liver where 10 μL of cells (1×10^6 cells) were discharged. The needle was held in this position for approximately 30 seconds to allow the Matrigel® to polymerize in order to avoid leakage of tumor cells into the abdominal cavity.
Treatment commenced 14 days post-inoculation. On Day 7 of the study (21 days post-inoculation), all mice from the ‘Take-Rate’ control group were culled and the livers visually assessed for the presence of tumors.
A stock solution was prepared weekly and stored at 4° C. Dosing solutions were prepared on each day of administration. […] The compound was administered at doses of 2, 10 and 50 mg/kg.
Liver and tumor wet weight were measured when each were excised post-mortem on the termination day of the study. At the termination of the study, livers were excised from all mice in each study group and weighed. The number of visible tumors, if present, was counted. These tumors were removed from the liver and weighed.
A One-Way Analysis of Variance (ANOVA) (All Pairwise Multiple Comparison Procedure and Multiple Comparison versus Control Group) was performed on liver weight and tumor weight data at the end of the study. […] The same statistical analyses were performed on the data for the tumor-bearing mice in the study.

Row | SMILES | No. of Mice with Tumors (out of 10)
1 | O=c1[nH]cc(F)c(=O)[nH]1 [5-Fluorouracil, reference compound] | 4

same assay, conditions: 5FU 75 mg/kg i.v. Day 0, 7 and 14, tumor-bearing mice

Row | SMILES | Average Liver Weight | Average Tumor Weight
2 | O=c1[nH]cc(F)c(=O)[nH]1 [5-Fluorouracil, reference compound] | 1.217 g | 0.143 g

same assay, conditions: tumor-bearing mice, 75 mg/kg i.v. once per week

Row | SMILES | average weight of the tumors vs Vehicle Control
3 | O=c1[nH]cc(F)c(=O)[nH]1 [5-Fluorouracil, reference compound] | significantly different

same assay, conditions: tumor-bearing mice, 75 mg/kg i.v. once per week; p<0.05

Row | SMILES | average weight of the liver vs Vehicle Control
4 | O=c1[nH]cc(F)c(=O)[nH]1 [5-Fluorouracil, reference compound] | significantly different

system: phosphorylated ERK in MDA-MB-231 breast cancer cells; assay: Generation of EC50 data: Western blotting for phosphorylated ERK in EGF-stimulated cells; assay type: cell-based; conditions: EC50 class
Procedure: Effects of compounds in the cell were determined by Western blotting for phosphorylated ERK. MDA-MB-231 breast cancer cells were plated in a 48 well plate at 20,000 cells per well and grown in a 37° humidified CO2 incubator. The following day, the growth media (DMEM+10% fetal bovine serum) was removed and replaced with starve media (DMEM+0.1% fetal bovine serum). Cells were incubated in the starve media for sixteen hours and then treated with a range of compound concentrations for thirty minutes. After incubation with compound, cells were stimulated with 100 ng/ml EGF for five minutes. The cells were then lysed and analyzed by Western blot using a monoclonal antibody raised to phosphorylated ERK. The signal was amplified using a secondary antibody conjugated to a near-IR dye and detected on a Licor Odyssey scanner.

Row | SMILES | EC50
5 | COc1cc(F)c(F)c(Nc2ccc(I)cc2F)c1NS(=O)(=O)C1(C[C@@H](O)CO)CC1 [Eg. 99 (R isomer), N—(R)-(3,4-difluoro-2-(2-fluoro-4-iodophenylamino)-6-methoxyphenyl)-1-(2,3-dihydroxypropyl)cyclopropane-1-sulfonamide] | 2 to 15 nM
6 | COc1cc(F)c(F)c(Nc2ccc(I)cc2F)c1NS(=O)(=O)C1(CC(O)CO)CC1 (racemic) [Eg. 97 (Racemic), N-(3,4-difluoro-2-(2-fluoro-4-iodophenylamino)-6-methoxyphenyl)-1-(2,3-dihydroxypropyl)cyclopropane-1-sulfonamide] | < 2 nM
7 | COc1cc(F)c(F)c(Nc2ccc(I)cc2F)c1NS(=O)(=O)C1(C[C@H](O)CO)CC1 [Eg. 98 (S isomer)] | < 2 nM

same assay, conditions: Homo sapiens; EC50 classes per legend (pERK, MDA-MB-231 cells); classes D and F also cite IC50

Row | SMILES | EC50
8 | O=S(=O)(Nc1c(F)cc(F)c(F)c1Nc1ccc(I)cc1F)C1(C[C@H](O)CO)CC1 [Example 1023] | 2 to 15 nM
9 | O=S(=O)(Nc1ccc(F)c(F)c1Nc1ccc(I)cc1F)C1(CCO)CC1 [Example 1027] | < 2 nM
10 | O=S(=O)(Nc1c(F)cc(F)c(F)c1Nc1ccc(I)cc1F)C1(C[C@@H](O)CO)CC1 [Example 1024] | 2 to 15 nM
11 | O=S(=O)(Nc1ccc(F)c(F)c1Nc1ccc(I)cc1F)c1ccco1 [Example 1006] | 15 to 100 nM
12 | COc1cc(F)c(F)c(Nc2ccc(I)cc2F)c1NS(=O)(=O)C1CCC1 [Example 1025] | 2 to 15 nM
13 | CC(C)S(=O)(=O)Nc1ccc(F)c(F)c1Nc1ccc(I)cc1F [Example 1002] | 2 to 15 nM
14 | O=S(=O)(Nc1ccc(F)c(F)c1Nc1ccc(I)cc1F)c1ccsc1 [Example 1016] | 15 to 100 nM
15 | O=S(=O)(Nc1ccc(F)c(F)c1Nc1ccc(I)cc1F)C1CCCCC1 [Example 1008] | 15 to 100 nM
16 | Cc1cc(I)ccc1Nc1c(NS(=O)(=O)C2CC2)ccc(F)c1F [Example 1017] | 2 to 15 nM
17 | COc1cc(F)c(F)c(Nc2ccc(I)cc2F)c1NS(=O)(=O)C1(CCO)CC1 [Example 1026] | < 2 nM
18 | O=S(=O)(Nc1ccc(F)c(F)c1Nc1ccc(I)cc1F)C1(CC(O)CO)CC1 (racemic) [Example 1018] | < 2 nM
19 | COCCOc1cc(F)c(F)c(Nc2ccc(I)cc2F)c1NS(=O)(=O)C1(CC(O)CO)CC1 (stereo not drawn) [Example 1030] | 15 to 100 nM
20 | COc1cc(F)c(F)c(Nc2ccc(I)cc2F)c1NS(=O)(=O)C1(C[C@@H](O)CO)CC1 [Example 1022] | 2 to 15 nM
21 | O=S(=O)(Nc1c(F)cc(F)c(F)c1Nc1ccc(I)cc1F)C1(CC(O)CO)CC1 (racemic) [Example 1020] | < 2 nM
22 | COc1cc(F)c(F)c(Nc2ccc(I)cc2F)c1NS(=O)(=O)C1(CC(CO)CO)CC1 [Example 1028] | < 2 nM
23 | COc1cc(F)c(F)c(Nc2ccc(I)cc2F)c1NS(=O)(=O)C1(CC(O)CO)CC1 (racemic) [Example 1019] | < 2 nM

Row | SMILES | EC50
24 | O=S(=O)(Nc1ccc(F)c(F)c1Nc1ccc(I)cc1F)C1CCCC1 [Example 1007] | 15 to 100 nM
25 | CC(C)(C)S(=O)(=O)Nc1ccc(F)c(F)c1Nc1ccc(I)cc1F [Example 1009] | 15 to 100 nM
26 | CCCCS(=O)(=O)Nc1ccc(F)c(F)c1Nc1ccc(I)cc1F [Example 1003] | 15 to 100 nM
27 | O=S(=O)(Nc1ccc(F)c(F)c1Nc1ccc(I)cc1F)c1ccccc1 [Example 1014] | 15 to 100 nM
28 | COc1cc(F)c(F)c(Nc2ccc(C)cc2C)c1NS(C)(=O)=O [Example 1010] | < 2 nM
29 | O=S(=O)(Nc1ccc(F)c(F)c1Nc1ccc(I)cc1F)C1CC1 [Example 1001] | < 2 nM
30 | O=S(=O)(Nc1ccc(F)c(F)c1Nc1ccc(I)cc1F)c1ccccc1F [Example 1015] | > 100 nM
31 | CS(=O)(=O)Nc1ccc(F)c(F)c1Nc1ccc(I)cc1F [Example 1000] | < 2 nM
32 | COc1cc(F)c(F)c(Nc2ccc(I)cc2F)c1NS(=O)(=O)C1(C[C@H](O)CO)CC1 [Example 1021] | < 2 nM
33 | COc1cc(F)c(F)c(Nc2ccc(I)cc2F)c1NS(=O)(=O)C1CC1 [Example 1013] | 2 to 15 nM
34 | CC1(S(=O)(=O)Nc2ccc(F)c(F)c2Nc2ccc(I)cc2F)CC1 [Example 1012] | 2 to 15 nM
35 | O=S(=O)(Nc1c(F)cc(F)c(F)c1Nc1ccc(I)cc1F)C1CC1 [Example 1004] | 15 to 100 nM
36 | Cc1ccc(S(=O)(=O)Nc2ccc(F)c(F)c2Nc2ccc(I)cc2F)s1 [Example 1011] | 15 to 100 nM
37 | CCc1cc(F)c(F)c(Nc2ccc(I)cc2F)c1NS(=O)(=O)C1(CC(O)CO)CC1 (stereo not drawn) [Example 1029] | 15 to 100 nM
38 | O=S(=O)(Nc1ccc(F)c(F)c1Nc1ccc(I)cc1F)c1cccs1 [Example 1005] | 15 to 100 nM

system: orthotopic HT-29 human colorectal adenocarcinoma; assay: Growth response of orthotopic HT-29 colon tumors in nude mice; assay type: in vivo, BALB/c nu/nu mice; conditions: 75 mg/kg i.v. once per week
Procedure: as §1, with “7-12” for “10-14”, “16.58-25.39” for “19.1-29.94”, “21.52” for “22.95”, “9” for “15”
HT-29 human colorectal adenocarcinoma cells (Passage 4 from working stock VP-Stock 325) were cultured in RPMI1640 cell culture medium, which was supplemented with 10% FBS and penicillin-streptomycin (501 U/mL final concentration). The cells were harvested by trypsinisation, washed twice in HBSS and counted. The cells were then resuspended in HESS and adjusted to a final volume containing 2×10^8 cells/mL. Prior to inoculation, the incision site was liberally swabbed with alcohol and an incision made through the abdominal wall to expose the caecum wall. The needle was introduced through the surface of the caecum wall where 5 μL of cells (1×10^6 cells) were discharged.
A stock solution was prepared weekly and stored at 4° C. Dosing solutions were prepared on each day of administration.
Caecum and tumor wet weight were measured when each were excised post-mortem on the termination day of the study. At the termination of the study, the caecum was excised from all mice in each study group and weighed with the tumors intact. The tumors were then excised from the caecum and weighed.
A two-sample t-test was used to determine the significance in body weight change within a treatment group between Day 0 and the termination day of the study. […] In these groups, a two-sample t-test was used to determine the significance in body weight change within a treatment group between Day 0 and the final treatment day of the study, and between the last treatment day and the termination day of the study.
A One-Way Analysis of Variance (ANOVA) (All Pairwise Multiple Comparison Procedure and Multiple Comparison versus Control Group) was performed on the caecum weight and tumor weight data at the end of the study.

Row | SMILES | weight of the caecum and HT-29 tumors
39 | O=c1[nH]cc(F)c(=O)[nH]1 [5-Fluorouracil, reference compound] | no effect

same assay, conditions: 5FU 75 mg/kg, individual animals; listed as 5FU

Row | SMILES | Caecum Weight | Tumour Weight
40 | O=c1[nH]cc(F)c(=O)[nH]1 [5-Fluorouracil, reference compound] | 0.355 g and 0.199 g and 0.360 g and 0.284 g and 0.421 g and 0.706 g and 0.415 g and 0.327 g and 0.237 g and 0.377 g | 0.245 g and 0.001 g and 0.000 g (3×) and 0.010 g and 0.329 g and 0.130 g and 0.079 g and 0.003 g

same assay, conditions: 5FU 75 mg/kg, mice surviving to final day

Row | SMILES | Average Caecum Weight | Average Tumour Weight
41 | O=c1[nH]cc(F)c(=O)[nH]1 [5-Fluorouracil, reference compound] | 0.391 g | 0.069 g

system: MDA pERK; assay: MDA pERK ELISA; assay type: cell-based; conditions: not given

Row | SMILES | EC50
42 | O=S(=O)(Nc1ccc(F)c(F)c1Nc1ccc(-c2cn[nH]c2)cc1F)C1CC1 [Example 0497618] | > 200 nM
43 | COC(=O)c1ccc(S(=O)(=O)Nc2ccc(F)c(F)c2Nc2ccc(I)cc2F)n1C [Example 0561608] | 15 to 100 nM
44 | Cn1cc(-c2ccc(Nc3c(NS(=O)(=O)C4CC4)ccc(F)c3F)c(F)c2)cn1 [Example 0497620] | > 200 nM
45 | COC(=O)c1sccc1S(=O)(=O)Nc1ccc(F)c(F)c1Nc1ccc(I)cc1F [Example 0620926] | > 200 nM
46 | O=S(=O)(Nc1ccc(F)c(F)c1Nc1ccc(I)cc1F)C1CCNCC1 [Example 0561599] | 15 to 100 nM
47 | Cn1cc(S(=O)(=O)Nc2ccc(F)c(F)c2Nc2ccc(I)cc2F)c(C(F)(F)F)n1 [Example 0621026] | 100 to 200 nM
48 | O=S(=O)(Nc1ccc(F)c(F)c1Nc1ccc(-c2cccnc2)cc1F)C1CC1 [Example 0497689] | > 200 nM
49 | CCN(C)CCS(=O)(=O)Nc1ccc(F)c(F)c1Nc1ccc(I)cc1F [Example 0621029] | 100 to 200 nM
50 | CNCCS(=O)(=O)Nc1ccc(F)c(F)c1Nc1ccc(I)cc1F [Example 0621002] | 15 to 100 nM
51 | CC(=O)c1cccc(-c2ccc(Nc3c(NS(=O)(=O)C4CC4)ccc(F)c3F)c(F)c2)c1 [Example 0499266] | > 200 nM
